# Columns and labels:
# CB1 receptor [1] = molecular target: T1, CB1 receptor (Mus musculus, UniProt P47746); experiment: THC-induced increase in food intake in mice; type: in vivo; set-up: tissue Charles River Laboratories (France) (animals); host or cells: living mice, whole animal; details: for effect on THC-induced increase in food intake (hyperphagia) in mice: 24 h-food deprived C57B1/6 mice, THC 1 mg/kg, compound 2 mg/kg sc
# Method: Food intake was evaluated by measuring consumption of food in the home cages of the animals. For each animal, 50-100 g of standard laboratory chow (U.A.R., France) was placed in the cleaned home cage. The remaining amount of food was weighted 1 h later and the amount of food consumed calculated.
# Other pregnenolone derivatives (Table 4) for which the metabolism in downstream active steroids was reduced were tested for their ability to inhibit: 1. effects of the THC-induced cannabinoid tetrade (decrease in body temperature and in locomotor activity, (THC 10 mg/kg, compounds 6 mg/kg 15-30 min before THC) that is recognized as a sound method to evaluate the activation of the CB1 receptor; 2. THC-induced increase in food intake a typical effect of CB1 activation (THC between 0.5 and 1 mg/kg, compounds between 2 and 4 mg/kg 30 min before THC); 3. the increase in TNFalpha induced by LPS, another effects typical of CB1 […] (compounds 6 mg/kg 15 min before LPS). For each compound and each test independent groups of animals were used (at least n=6 per compound/per test).
# CHO cells = experiment: Study of metabolism in vitro in CHO cells, steroids in culture medium by GC/MS
# Summary of the method: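 CHO-K1 cells were seeded at 25×10^4 cells/well in antibiotic-free DMEM-Glutamax with 10% FBS to assess metabolism of pregnenolone derivatives. Pregnenolone, allopregnanolone, epiallopregnanolone, testosterone and 5α-dihydrotestosterone in culture medium were extracted, purified and quantified by GC/MS.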
# AMPA receptors = experiment: AMPAR-mediated mEPSC in nucleus accumbens principal neurons; type: cell-based, mouse; details: pregnenolone 100 nM treated slices
# CB1 receptor [2] = molecular target: T1, CB1 receptor; experiment: THC-induced cannabinoid tetrad (body temperature, locomotor activity, catalepsy, analgesia); type: in vivo, mice; set-up: tissue Charles River Laboratories (France) (animals); host or cells: living mice, whole animal
# [3] = culture medium of treated CHO cells, 0 = concentrations below the detection limit
# [4] = culture medium, pregnenolone 1 μM, 48 hours
# T1 sequence (P47746 whole entry): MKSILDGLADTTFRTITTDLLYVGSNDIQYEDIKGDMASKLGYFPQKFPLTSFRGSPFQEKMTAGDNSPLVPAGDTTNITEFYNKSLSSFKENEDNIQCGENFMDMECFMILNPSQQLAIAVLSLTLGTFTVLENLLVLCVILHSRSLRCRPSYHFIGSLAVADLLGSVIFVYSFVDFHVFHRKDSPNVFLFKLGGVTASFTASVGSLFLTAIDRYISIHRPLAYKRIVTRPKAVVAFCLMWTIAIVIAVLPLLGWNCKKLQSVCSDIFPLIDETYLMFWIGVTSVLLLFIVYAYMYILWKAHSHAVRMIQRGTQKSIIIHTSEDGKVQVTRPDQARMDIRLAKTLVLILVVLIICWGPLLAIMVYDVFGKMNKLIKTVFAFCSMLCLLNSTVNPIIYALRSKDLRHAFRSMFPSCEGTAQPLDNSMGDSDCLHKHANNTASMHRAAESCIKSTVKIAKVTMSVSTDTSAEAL
compound,measurement,setting,value
"CC(=O)[C@H]1CC[C@H]2[C@@H]3CC=C4C[C@@H](O)CC[C@]4(C)[C@H]3CC[C@]12C [Pregnenolone, 5-Pregnen-3β-ol-20-one]",effect on THC-induced increase in food intake (hyperphagia) in mice,CB1 receptor [1],decreased THC-induced hyperphagia
same,effect on THC-induced increase in food intake (hyperphagia) in mice,CB1 receptor [1]; listed as pregnenolone,suppressed the increase in food intake
same,dose inhibiting THC-induced increase in food-intake (first effective dose),"CB1 receptor [1]; dose response in 24 h-food deprived mice, 0.5 mg/kg dose was ineffective",1 mg/kg
same,DHEA,CHO cells; [3],0.00 pg/mL
same,TESTO,CHO cells; [3],0.00 pg/mL
same,ALLO steroid levels,CHO cells; [4],3529.99 pg/mL
same,EPIALLO steroid levels,CHO cells; [4],16963.84 pg/mL
same,PREG steroid levels,CHO cells; [4],11440.66 pg/mL
same,THDOC steroid levels,CHO cells; [4],77.47 pg/mL
same,AMPAR-mediated mEPSC amplitude,AMPA receptors,15.7±0.7 pA
same,AMPAR-mediated mEPSC decay time,AMPA receptors,4.62 ± 0.06 ms
same,effect on THC-induced cannabinoid tetrad,"CB1 receptor [2]; pregnenolone 6 mg/kg before THC, absence of AMG",decreased all the behaviours of the THC-induced cannabinoid tetrad
same,effect on the AMG enhancement of THC behavioural effects,"CB1 receptor [2]; pregnenolone 6 mg/kg, AMG 50 mg/kg, THC 10 mg/kg",completely reversed
same,"effect on locomotor activity, body temperature, catalepsy and pain threshold in the absence of THC",CB1 receptor [2]; pregnenolone per se,had no effect

# Source: patent publication US10150793B2, “Antagonists of CB1 receptor” (INSERM (Institut National de la Santé et de la Recherche …, priority 2011, dated 2018)
